From patent publication US20260257992A1, “AGONISTS OF SMALL HETERODIMER PARTNER FOR CANCER THERAPY” (THE BOARD OF TRUSTEES OF THE UNIVERSITY OF ILLINOIS, priority 2023, published 2026)

Key:
Aqueous solubility = type: physicochemical
Treg expansion = Treg expansion with PBMC-derived DCs of healthy volunteers; type: cell-based, human; conditions: cells from healthy volunteers
Treg abundance = assay: In vivo model of immune tolerance to a chronic antigen
E0771 tumors = assay: Survival after orthotopic graft of a suboptimal number of E0771-luc cells; type: in vivo, mouse; conditions: treatment ceased after 18 days
Source text: We then evaluated DSHN in a model where a low, suboptimal number of E0771-luc cells were grafted orthotopically. Since NR0B2 was also implicated in regulating myeloid cell expression of PD-L1, we investigated the effect of acute DSHN combined with anti-PD-L1 (αPDL1) treatment on subsequent outgrowth of E0771 tumors. Treatment was ceased after 18 days and mice were monitored through time. […] We next assessed the effects of DSHN combined with αPDL1 on growth of primary tumors (optimal number of cells used to establish graft). […] We then evaluated the ability of DSHN to impact established metastatic disease—a stage that is refractory to standard of care therapy and immune checkpoint blockade. […] In summary, the tool compound DSHN provides proof of principle that the NR0B2-myeloid cell-Treg axis can be targeted for the treatment of breast cancer.

ABCA1 mRNA = ABCA1 mRNA reduction in Raw cells; type: cell-based; set-up: key: ✓: using strict cutoffs with respect to DSHN for passing each metric; X: using strict cutoffs with respect to DSHN for passing each metric; conditions: pass/fail with respect to DSHN
Source text: Development of a more efficacious NR0B2 agonist. While DSHN was a useful proof-of-concept small molecule, macrophages required high doses and chronic exposure for robust influences on subsequent Tregs expansion. […] Therefore, we synthesized several derivatives of DSHN and screened them using a reporter assay which makes use of the endogenous cholesterol homeostatic feedback loop, where FXR activation upregulates NR0B2, which then inhibits LXR and its normal induction of ABCA1. We then followed this screen with several others with stringent cutoffs: effect on endogenous ABCA1 and IL1β expression, reduction of Treg expansion in either macrophage or DC co-cultures, and low cellular toxicity (FIG. 5A, Table 4).

Lewis Lung tumors = Lewis Lung tumors grown in the flank; type: in vivo, mouse
Source text: FIG. 7A-7I. DSHN-OMe reduces tumor and metastatic growth in murine models, in a myeloid cell-NR0B2 dependent manner. (A) E0771 cells were grafted into control mice (NR0B2^+/+; LysMCre^+) or mice where NR0B2 was knocked out in myeloid immune cells (NR0B2^fl/fl; LysMCre^+). 8 days post-graft, daily treatment with placebo or DSHN-OMe was initiated and subsequent tumor growth followed through time. Different letters denote statistical difference on the final measurement (day 21, 2-Way ANOVA followed by Šidák's post-hoc, N=5-8). (B) Waterfall plot illustration of data in (A) showing tumor volume at final day of measurement. Asterisk indicates significant difference (Chi-squared test, P<0.05). (C) Lewis Lung cells were grafted into control mice (NR0B2^+/+; LysMCre^+) or mice where NR0B2 was knocked out in myeloid immune cells (NR0B2^fl/fl; LysMCre^+). 10 days post-graft, daily treatment with placebo or DSHN-OMe was initiated and subsequent tumor growth followed through time. […] (G) EMT6 metastatic lungs were assessed for Ki67 mRNA and (H) FOXP3 mRNA. (I) EMT6 metastatic lungs were assessed for CD8+ cytotoxic T cells (CD8+). […]
Since Tregs are considered a problem common to many solid tumor types, we reasoned that DSHN-OMe should have broad efficacy. To test this, we evaluated the ability of DSHN-OMe to influence the growth of murine Lewis Lung tumors grown in the flank.

| Compound | Aqueous solubility (Aqueous solubility) | Treg expansion, human PBMC-derived DCs (Treg expansion) | Treg abundance in vivo (Treg abundance) | Survival of one DSHN-only treated mouse, no palpable tumor (E0771 tumors; post graft) | Survival time, combined with αPDL1 (E0771 tumors; versus placebo) | ABCA1 mRNA reduction (Raw Cells) (ABCA1 mRNA) | Lewis Lung tumor growth (Lewis Lung tumors; NR0B2-replete mice, daily treatment from day 10, versus placebo) | Lewis Lung anti-tumor effect, dependence on myeloid NR0B2 (Lewis Lung tumors; NR0B2fl/fl, LysMCre+ versus replete mice) |
| --- | --- | --- | --- | --- | --- | --- | --- | --- |
| CCN(CC)S(=O)(=O)c1cccc2cc(C(=O)O)c(O)cc12 [DSHN, reference compound] | poor aqueous solubility | decreased Treg expansion | reduce Treg abundance | more than 400 days | significantly increased survival time |  |  |  |
| CCN(CC)S(=O)(=O)c1cccc2cc(C(=O)OC)c(O)cc12 [DSHN-OMe, Methyl 5-(N,N-diethylsulfamoyl)-3-hydroxy-2-naphthoate] |  |  |  |  |  | ✓ | significantly reduced tumor growth | only observed in mice with replete myeloid cell expression of NR0B2 |
